How the values were obtained:
Capivasertib = compound: C1CN(CCC1(C(=O)N[C@@H](CCO)C2=CC=C(C=C2)Cl)N)C3=NC=NC4=C3C=CN4 [Capivasertib]
Summary of the method: (§1)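 Viability was measured with CellTiter-Glo 2.0 luminescence after 72 hours of dosing at a final DMSO of typically 0.2%, and scaled between blank-well and DMSO-well means. Beforehand, cancer cell lines sat 24 hours at 37°C and 5% CO2 in 1536-well plates in 7.5 μl DMEM/F12 or RPMI with 10% FBS. A non-linear mixed effects model fitted two-parameter logistic curves to the dose responses. The single-agent IC50 comes from these fits.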

AZD1775 = compound: C=CCn1c(=O)c2cnc(Nc3ccc(N4CCN(C)CC4)cc3)nc2n1-c1cccc(C(C)(C)O)n1 [AZD1775]
Summary of the method: as §1

Trametinib = compound: CC(=O)Nc1cccc(-n2c(=O)n(C3CC3)c(=O)c3c(Nc4ccc(I)cc4F)n(C)c(=O)c(C)c32)c1 [Trametinib]; conditions: max 1 µM
Summary of the method: as §1

Palbociclib = compound: CC(=O)c1c(C)c2cnc(Nc3ccc(N4CCNCC4)cn3)nc2n(C2CCCC2)c1=O [Palbociclib]; conditions: max 10 µM
Summary of the method: as §1

AZD1390 = compound: CC(C)n1c(=O)n(C)c2cnc3cc(F)c(-c4ccc(OCCCN5CCCCC5)nc4)cc3c21 [AZD1390]; conditions: max 0.3 µM
Summary of the method: as §1

Venetoclax = compound: CC1(C)CCC(CN2CCN(c3ccc(C(=O)NS(=O)(=O)c4ccc(NCC5CCOCC5)c([N+](=O)[O-])c4)c(Oc4cnc5[nH]ccc5c4)c3)CC2)=C(c2ccc(Cl)cc2)C1 [Venetoclax]; conditions: max 1 µM
Summary of the method: as §1

Dasatinib = compound: CC1=C(C(=CC=C1)Cl)NC(=O)C2=CN=C(S2)NC3=CC(=NC(=N3)C)N4CCN(CC4)CCO [Dasatinib]; conditions: max 2 µM
Summary of the method: as §1

SG3199 = compound: CC1=CN2[C@@H](C1)C=NC3=CC(=C(C=C3C2=O)OC)OCCCCCOC4=C(C=C5C(=C4)N=C[C@@H]6CC(=CN6C5=O)C)OC [SG3199]; conditions: max 0.001 µM
Summary of the method: as §1

AZD2811 = compound: CCN(CCO)CCCOc1ccc2c(Nc3cc(CC(=O)Nc4cccc(F)c4)[nH]n3)ncnc2c1 [AZD2811]; conditions: max 1 µM
Summary of the method: as §1

SN-38 = compound: CCc1c2c(nc3ccc(O)cc13)-c1cc3c(c(=O)n1C2)COC(=O)[C@]3(O)CC [SN-38]; conditions: max 0.3 µM
Summary of the method: as §1

AZD0156 = compound: CN(C)CCCOc1ccc(-c2ccc3ncc4c(c3c2)n(C2CCOCC2)c(=O)n4C)cn1 [AZD0156]
Summary of the method: as §1

AZD4320 = compound: CN(CC[C@H](CSC1=CC=CC=C1)NC2=C(C=C(C=C2)S(=O)(=O)NC(=O)C3=CC=C(C=C3)N4CCC(CC4)[C@H](C5=CC=CC=C5C6=CC=C(C=C6)Cl)O)S(=O)(=O)C(F)(F)F)CCO [AZD4320]; conditions: max 1 µM
Summary of the method: as §1

Alisertib = compound: COc1cc(Nc2ncc3c(n2)-c2ccc(Cl)cc2C(c2c(F)cccc2OC)=NC3)ccc1C(=O)O [Alisertib]; conditions: max 10 µM
Summary of the method: as §1

Gefitinib = compound: COc1cc2ncnc(Nc3ccc(F)c(Cl)c3)c2cc1OCCCN1CCOCC1 [Gefitinib]; conditions: max 10 µM
Summary of the method: as §1

Prexasertib = compound: COc1cccc(OCCCN)c1-c1cc(Nc2cnc(C#N)cn2)n[nH]1 [Prexasertib]; conditions: max 1 µM
Summary of the method: as §1

Doxorubicin = compound: COc1cccc2c1C(=O)c1c(O)c3c(c(O)c1C2=O)C[C@@](O)(C(=O)CO)C[C@@H]3O[C@H]1C[C@H](N)[C@H](O)[C@H](C)O1 [Doxorubicin]; conditions: max 1 µM
Summary of the method: as §1

AZD5153 = compound: COc1nnc2ccc(N3CCC(c4ccc(OCCN5CCN(C)C(=O)[C@H]5C)cc4)CC3)nn12 [AZD5153]; conditions: max 1 µM
Summary of the method: as §1

Lapatinib = compound: CS(=O)(=O)CCNCc1ccc(-c2ccc3ncnc(Nc4ccc(OCc5cccc(F)c5)c(Cl)c4)c3c2)o1 [Lapatinib]; conditions: max 10 µM
Summary of the method: as §1

AZD8186 = compound: C[C@@H](Nc1cc(F)cc(F)c1)c1cc(C(=O)N(C)C)cc2c(=O)cc(N3CCOCC3)oc12 [AZD8186]; conditions: max 3 µM
Summary of the method: as §1

Crizotinib = compound: C[C@@H](Oc1cc(-c2cnn(C3CCNCC3)c2)cnc1N)c1c(Cl)ccc(F)c1Cl [Crizotinib]; conditions: max 10 µM
Summary of the method: as §1

Savolitinib = compound: C[C@@H](c1ccc2nccn2c1)n1nnc2ncc(-c3cnn(C)c3)nc21 [Savolitinib]; conditions: max 1 µM
Summary of the method: as §1

AZD6738 = compound: C[C@@H]1COCCN1C2=NC(=NC(=C2)C3(CC3)[S@](=N)(=O)C)C4=C5C=CNC5=NC=C4 [AZD6738]; conditions: max 10 µM
Summary of the method: as §1

AZD5991 = compound: Cc1c2c(nn1C)CSCc1cc(n(C)n1)CSc1cc(c3ccccc3c1)OCCCc1c(C(=O)O)n(C)c3c-2c(Cl)ccc13 [AZD5991]; conditions: max 1 µM
Summary of the method: as §1

AZD7648 = compound: Cc1cc2ncnn2cc1Nc1ncc2c(n1)n(C1CCOCC1)c(=O)n2C [AZD7648]; conditions: max 10 µM
Summary of the method: as §1

Taselisib = compound: Cc1nc(-c2cn3c(n2)-c2ccc(-c4cnn(C(C)(C)C(N)=O)c4)cc2OCC3)n(C(C)C)n1 [Taselisib]; conditions: max 10 µM
Summary of the method: as §1

Selumetinib = compound: Cn1cnc2c(F)c(Nc3ccc(Br)cc3Cl)c(C(=O)NOCCO)cc21 [Selumetinib]
Summary of the method: as §1

Olaparib = compound: O=C(c1cc(Cc2n[nH]c(=O)c3ccccc23)ccc1F)N1CCN(C(=O)C2CC2)CC1 [Olaparib]; conditions: max 10 µM
Summary of the method: as §1

Cell Line | IC50, cell viability 72 h (Capivasertib; max 10 µM) | IC50, cell viability 72 h (AZD1775; max 3 µM) | IC50, cell viability 72 h (Trametinib) | IC50, cell viability 72 h (Palbociclib) | IC50, cell viability 72 h (AZD1390) | IC50, cell viability 72 h (Venetoclax) | IC50, cell viability 72 h (Dasatinib) | IC50, cell viability 72 h (SG3199) | IC50, cell viability 72 h (AZD2811) | IC50, cell viability 72 h (SN-38) | IC50, cell viability 72 h (AZD0156; max 3 µM) | IC50, cell viability 72 h (AZD4320) | IC50, cell viability 72 h (Alisertib) | IC50, cell viability 72 h (Gefitinib) | IC50, cell viability 72 h (Prexasertib) | IC50, cell viability 72 h (Doxorubicin) | IC50, cell viability 72 h (AZD5153) | IC50, cell viability 72 h (Lapatinib) | IC50, cell viability 72 h (AZD8186) | IC50, cell viability 72 h (Crizotinib) | IC50, cell viability 72 h (Savolitinib) | IC50, cell viability 72 h (AZD6738) | IC50, cell viability 72 h (AZD5991) | IC50, cell viability 72 h (AZD7648) | IC50, cell viability 72 h (Taselisib) | IC50, cell viability 72 h (Selumetinib; max 10 µM) | IC50, cell viability 72 h (Olaparib) | IC50, cell viability 72 h (Capivasertib; max 3 µM) | IC50, cell viability 72 h (AZD1775; max 1 µM) | IC50, cell viability 72 h (AZD0156; max 1 µM) | IC50, cell viability 72 h (Selumetinib; max 3 µM)
MM1S (Plasma Cell Myeloma) | 0.545 µM | 0.72 µM | > 1 µM | > 10 µM | > 0.3 µM | > 1 µM | > 2 µM | > 0.001 µM | > 1 µM | 0.0101 µM | 1.69 µM | 0.153 µM | > 10 µM | > 10 µM | 0.0301 µM | 0.459 µM | 0.347 µM | > 10 µM | > 3 µM | 6.08 µM | > 1 µM | 9.52 µM | 0.325 µM | > 10 µM | 0.207 µM | > 10 µM | > 10 µM | – | – | – | –
MOLP-8 (Plasma Cell Myeloma) | 8.91 µM | 0.465 µM | > 1 µM | > 10 µM | > 0.3 µM | > 1 µM | > 2 µM | > 0.001 µM | > 1 µM | 0.0484 µM | 1.74 µM | > 1 µM | 5.24 µM | > 10 µM | 0.0245 µM | 0.407 µM | 0.0495 µM | > 10 µM | > 3 µM | 2.65 µM | > 1 µM | 3.83 µM | 0.0485 µM | > 10 µM | 0.439 µM | > 10 µM | > 10 µM | – | – | – | –
MOLT-13 (T-Lymphoblastic Leukemia) | > 10 µM | 0.44 µM | 0.459 µM | 5.57 µM | > 0.3 µM | 0.416 µM | > 2 µM | > 0.001 µM | 0.0427 µM | 0.00385 µM | > 3 µM | 0.0338 µM | 0.177 µM | > 10 µM | 0.0165 µM | 0.467 µM | 0.0357 µM | 5.86 µM | > 3 µM | 4.26 µM | > 1 µM | 2.37 µM | 0.0528 µM | > 10 µM | > 10 µM | 5.27 µM | > 10 µM | – | – | – | –
NMC-G1 (Low Grade Glioma) | – | – | > 1 µM | – | – | > 1 µM | – | > 0.001 µM | > 1 µM | > 0.3 µM | – | > 1 µM | > 10 µM | – | > 1 µM | > 1 µM | – | – | > 3 µM | – | – | > 10 µM | > 1 µM | > 10 µM | > 10 µM | – | > 10 µM | > 3 µM | > 1 µM | > 1 µM | > 3 µM
TUR (Acute Myeloid Leukemia) | 2.86 µM | 0.575 µM | > 1 µM | > 10 µM | > 0.3 µM | > 1 µM | > 2 µM | > 0.001 µM | > 1 µM | 0.0229 µM | > 3 µM | > 1 µM | > 10 µM | > 10 µM | 0.0164 µM | 0.626 µM | > 1 µM | > 10 µM | > 3 µM | > 10 µM | > 1 µM | 3.44 µM | – | > 10 µM | 1.21 µM | > 10 µM | > 10 µM | – | – | – | –
